Key:
[1] = biological target: T1, recombinant human Cox-1 (r-hu Cox1) (Homo sapiens, UniProt P23219); assay: Recombinant human PGHS-1 enzyme assay (RHUCX1); assay type: biochemical
T1 construct: made in house; host or cells: baculovirus/Sf9 insect cells (microsomes)
How it was run: (§1)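 Recombinant enzyme reaction ran 2.5 minutes at room temperature, then was quenched with HCl and neutralized with NaOH. PGE2 formed with and without drug was quantified by EIA against standards in the same milieu. Percent inhibition versus control mean; IC50 by linear regression.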

[2] = biological target: T2, recombinant human Cox-2 (r-hu Cox-2) (Homo sapiens, UniProt P35354); assay: Recombinant human PGHS-2 enzyme assay (RHUCX2); assay type: biochemical; settings: for IC50: read-out: RHUCX2 IC50 (parenthetical value)
T2 construct: made in house; host or cells: baculovirus/Sf9 insect cells (microsomes)
T2 sequence (P35354 18-604): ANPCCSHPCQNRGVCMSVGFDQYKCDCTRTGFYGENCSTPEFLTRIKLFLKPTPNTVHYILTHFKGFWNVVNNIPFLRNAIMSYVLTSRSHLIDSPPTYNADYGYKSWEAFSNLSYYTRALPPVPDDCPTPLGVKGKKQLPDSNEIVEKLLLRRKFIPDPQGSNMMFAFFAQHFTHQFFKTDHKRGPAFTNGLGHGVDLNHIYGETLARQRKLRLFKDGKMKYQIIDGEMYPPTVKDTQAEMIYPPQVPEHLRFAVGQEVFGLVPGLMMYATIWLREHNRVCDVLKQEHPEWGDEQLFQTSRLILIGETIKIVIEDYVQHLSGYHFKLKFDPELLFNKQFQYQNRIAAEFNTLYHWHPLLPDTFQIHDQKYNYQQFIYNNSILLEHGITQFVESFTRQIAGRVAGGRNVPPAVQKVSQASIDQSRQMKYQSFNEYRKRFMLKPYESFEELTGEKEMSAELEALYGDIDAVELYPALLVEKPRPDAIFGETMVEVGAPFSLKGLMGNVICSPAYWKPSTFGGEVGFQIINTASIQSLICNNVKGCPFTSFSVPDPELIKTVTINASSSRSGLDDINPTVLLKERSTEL
How it was run: as §1

[3] = test system: carrageenan induced paw edema; assay: Carrageenan induced paw edema (CPE) in rats; assay type: in vivo; settings: rat; for inhibition in vivo at 10 mg/kg: read-out: CPE % Inhib. @ 10 mpk
Method: For oral administration, test compounds were suspended on the day of use in 100% polyethyleneglycol (PEG 400) with a motorized homogenizer equipped with a Teflon-coated pestle (TRI-R Instrument, Jamaica, N.Y.).
To compare the mean responses of the treatment groups, analysis of variance was applied. Percent inhibition values were determined by comparing the individual treatment mean values to the mean of the control group. Linear regression was used to estimate IC50's/ED50's in appropriate assays.
Hingpaw edema was […] in male rats as described by Winter et al., Proc. Soc. Exp. Biol. Med., 1962, 111, 544. Briefly, male Sprague-Dawley rats weighing between 170 and 190 g were administered test compounds orally 1 hour prior to the subplantar injection of 0.1 ml of 1% sodium carrageenan (lambda carrageenan, Sigma Chemical Co., St Louis, Mo.) into the right hindpaw. Right paw volumes (ml) were measured immediately following injection of carrageenan for baseline volume measurements using a Buxco plethysmograph (Buxco Electronics, Inc., Troy, N.Y.). Three hours after the injection of carrageenan, right paws were remeasured and paw edema calculated for each rat by subtracting the zero time reading from the 3 hour reading. Data are reported as mean percent inhibition +/−SEM. Statistical significance of results was analyzed by Dunnetts multiple comparison test where p<0.05 was considered statistically significant.

[4] = biological target: T3, Human Whole Platelet Cyclooxygenase-1 (Homo sapiens, UniProt P23219); assay: Human Whole Platelet Cyclooxygenase-1 assay (HWPX); assay type: cell-based; settings: for IC50: read-out: HWPX IC50 (parenthetical value)
T3 construct: from tissue; host or cells: human blood: isolated platelets (A4) or heparinised whole blood (A9)
T3 sequence (P23219 24-599): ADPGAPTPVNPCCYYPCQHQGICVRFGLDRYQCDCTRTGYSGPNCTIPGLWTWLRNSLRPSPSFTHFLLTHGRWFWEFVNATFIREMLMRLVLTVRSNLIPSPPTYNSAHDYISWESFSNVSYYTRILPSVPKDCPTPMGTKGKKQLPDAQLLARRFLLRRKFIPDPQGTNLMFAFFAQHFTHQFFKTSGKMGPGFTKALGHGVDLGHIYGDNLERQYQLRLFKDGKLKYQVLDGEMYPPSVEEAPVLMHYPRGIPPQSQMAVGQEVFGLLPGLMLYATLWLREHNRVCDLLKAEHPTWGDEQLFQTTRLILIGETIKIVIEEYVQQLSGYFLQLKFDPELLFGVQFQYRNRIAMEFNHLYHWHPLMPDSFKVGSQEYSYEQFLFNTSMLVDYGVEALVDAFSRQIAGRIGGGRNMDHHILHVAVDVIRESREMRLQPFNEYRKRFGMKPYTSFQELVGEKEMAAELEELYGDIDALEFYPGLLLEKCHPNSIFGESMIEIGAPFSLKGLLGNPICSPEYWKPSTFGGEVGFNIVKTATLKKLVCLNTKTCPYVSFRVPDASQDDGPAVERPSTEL
How it was run: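 Washed platelets from healthy-donor ACD blood were pre-incubated with compound for 10 min, then stimulated with calcium ionophore A23187 (8.8 μM final) for 10 min. Reaction stopped with cold 6 mM EDTA; thromboxane in supernatants quantified with a commercial kit.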

[5] = test system: air pouch prostaglandin biosynthesis (Cox-2); assay: Carrageenan induced air pouch prostaglandin biosynthesis model (CAP); assay type: in vivo, rat; settings: for inhibition in vivo at 3 mg/kg: 4 h, read-out: CAP % Inhib. @ 3 mpk; for ED50: Rattus norvegicus
How it was run: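 Male Sprague Dawley rats with dorsal air pouches (20 mL air day 0, 10 mL day 3) received 0.2% lambda carrageenan in saline into the pouch on day 7. Compounds dosed at 0.1 to 10 mg/kg 30 min before carrageenan; pouch lavaged 4 h later, prostaglandins measured by EIA. Percent inhibition versus control mean; ED50 by linear regression.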

[6] = biological target: T4, human amnionic whole cell cyclooxygenase-2 (WISH cells) (Homo sapiens, UniProt P35354); assay: IL-1β induced PGE2 production in WISH cells; assay type: cell-based; settings: read-out: Wish IC50 (parenthetical value)
T4 construct: endogenous in cells; host or cells: human amnionic WISH cells, induced with IL-1beta
T4 sequence (P35354 18-604): T2 sequence (P35354 18-604)
How it was run: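 Confluent (80%) WISH cells were stimulated with 5 ng/ml IL-1β in serum-free Neuman-Tytell medium, with or without test compound in DMSO (0.01% v/v). PGE2 in the culture medium was measured by EIA against standards prepared in the same medium, read by optical density.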

[7] = read-out: RHUCX1 % Inh. at Dose
[8] = 10 mpk oral, 3 hours after carrageenan
[9] = read-out: RHUCX2 % Inh. at Dose

T1 sequence (P23219 24-599): as above

Row | Compound | inhibition at 100 µM [1, 7] | IC50 [2] | inhibition in vivo at 10 mg/kg [3, 8] | melting point | IC50 [4] | inhibition in vivo at 3 mg/kg ([5]; 3 mpk, rat) | IC50 [6] | further results
1 | CS(=O)(=O)c1ccc(-c2cnn(-c3ccc(F)c(F)c3)c(=O)c2Oc2ccc(F)cc2)cc1 [Example 109, 2-(3,4-Difluorophenyl)-4-(4-fluorophenoxy)-5-[4-(methylsulfonyl)phenyl]-3(2H)-pyridazinone] | 6% | 147 nM | 13% | 178 to 180 °C | 2690 nM | 71% | 18 nM | –
2 | CS(=O)(=O)c1ccc(-c2cnn(-c3cccc(Cl)c3)c(=O)c2Oc2ccc(F)cc2)cc1 [Example 112, 2-(3-Chlorophenyl)-4-(4-fluorophenoxy)-5-[4-(methylsulfonyl)phenyl]-3(2H)-pyridazinone] | 5% | 136 nM | 21% | 211 to 213 °C | – | 42.5% | – | –
3 | CC(C)CCc1c(-c2ccc(S(N)(=O)=O)c(F)c2)cnn(CC(F)(F)F)c1=O [Example 226] | 0% | 1090 nM | 21% | – | – | 40.5% | – | –
4 | CC(C)CCOc1c(-c2ccc(S(C)(=O)=O)cc2)cnn(-c2ccc(F)c(F)c2)c1=O [Example 347, 2-(3,4-Difluorophenyl)-4-(3-methyl-1-butoxy)-5-[4-(methylsulfonyl)phenyl]-3(2H)-pyridazinone] | 11% | 75 nM | 27% | 121 to 123 °C | – | 66.5% | – | –
5 | CS(=O)(=O)c1ccc(-c2cnn(-c3cccc(Cl)c3)c(=O)c2Cc2ccccc2)cc1 [Example 367, 2-(3-Chlorophenyl)-4-benzyl-5-[4-(methylsulfonyl)phenyl]-3(2H)-pyridazinone] | 0% | 77 nM | – | 174 to 177 °C | – | 48% | 18 nM | inhibition at 0.3 µM ([4]; 0.3 μM, read-out: HWPX % Inhib. at Dose): 8%; inhibition at 1 µM ([4]; 1 μM, read-out: HWPX % Inhib. at Dose): 50%
6 | CC(C)COc1c(-c2ccc(S(C)(=O)=O)cc2)cnn(-c2ccc(F)cc2)c1=O [Example 376, 2-(4-Fluorophenyl)-4-(2-methylpropoxy)-5-[4-(methylsulfonyl)phenyl]-3(2H)-pyridazinone] | 12% | 27 nM | 17% | 121 to 128 °C | – | 77.5% | – | –
7 | NS(=O)(=O)c1ccc(-c2cnn(-c3ccc(F)c(F)c3)c(=O)c2Oc2ccc(F)cc2)cc1 [Example 388, 2-(3,4-Difluophenyl)-4-(4-fluorophenoxy)-5-[4-(aminosulfonyl)phenyl]-3(2H)-pyridazinone] | – | 49 nM | – | – | – | – | 32 nM | RHUCX1 % Inh. at Dose (μM) ([1]; 1 μM): 36 @ 1%; RHUCX1 % Inh. at Dose (μM) ([1]; 10 μM): 74 @ 10%; CPE % Inhib. @ 10 mpk [3, 8]: 28%; HWPX % Inhib. at Dose (μM) ([4]; 0.3 μM): 0 @ .3%; CAP % Inhib. @ 3 mpk ([5]; 3 mpk, rat): 80%
8 | CC(C)CCc1c(-c2ccc(S(N)(=O)=O)cc2)cnn(-c2cccc(Cl)c2)c1=O [Example 392, 2-(3-Chlorophenyl)-4-(3-methylbutyl)-5-[4-(aminosulfonyl)phenyl]-3(2H)-pyridazinone] | 56% | – | – | 167 to 170 °C | 1950 nM | 60% | 20 nM | inhibition at 10 µM ([1]; 10 μM, read-out: RHUCX1 % Inh. at Dose): 35%; inhibition at 0.01 µM [2, 9]: 65%; inhibition at 0.1 µM [2, 9]: 82%
9 | CC(C)COc1c(-c2ccc(S(N)(=O)=O)cc2)cnn(-c2ccc(F)cc2)c1=O [Example 397, 2-(4-Fluorophenyl)-4-(2-methylpropoxy)-5-[4-(aminosulfonyl)phenyl]-3(2H)-pyridazinone] | 25% | – | – | 132 to 136 °C | 13800 nM | 70% | 40 nM | inhibition at 0.01 µM [2, 9]: 39%; inhibition at 0.1 µM [2, 9]: 58%; inhibition at 1 µM ([2]; 1 μM, read-out: RHUCX2 % Inh. at Dose): 93%
10 | CC(=O)CCOc1c(-c2ccc(S(C)(=O)=O)cc2)cnn(-c2ccc(F)c(F)c2)c1=O [Example 467, 2-(3,4-Difluorophenyl)-4-(3-oxo-1-butoxy)-5-[4-(methylsulfonyl)phenyl]-3(2H)-pyridazinone] | 4% | 1960 nM | – | 134 to 135 °C | – | – | 135 nM | CPE ED30 ([3]; oral): ED30 = 1.7; ED50 [5]: 0.4 mg/kg
11 | CC(C)(O)CCOc1c(-c2ccc(S(C)(=O)=O)cc2)cnn(-c2cccc(Cl)c2)c1=O [Example 475, 2-(3-Chlorophenyl)-4-(3-hydroxy-3-methyl-1-butoxy)-5-[4-(methylsulfonyl)phenyl]-3(2H)-pyridazinone] | 0% | 710 nM | 33% | – | – | – | 440 nM | inhibition at 100 µM ([4]; 100 μM, read-out: HWPX % Inhib. at Dose): 50%; ED50 [5]: 1.4 mg/kg
12 | CC(=O)NS(=O)(=O)c1ccc(-c2cnn(CC(F)(F)F)c(=O)c2OCC(C)(C)CO)cc1 [Example 528, N-[[4-[2-(2,2,2-Trifluoroethyl)-4-(3-hydroxy-2,2-dimethyl-1-propoxy)-2H-pyridazin-3-on-5-yl]phenyl]sulfonyl]acetamide] | – | 720 nM | 40% | – | 3500 nM | – | 54 nM | IC50 ([1]; read-out: RHUCX1 IC50 (parenthetical value)): 3400 nM; ED50 [5]: 1.4 mg/kg
